Consider 18 compounds from patent US20240150377A1, “MODULATORS OF CYSTIC FIBROSIS TRANSMEMBRANE CONDUCTANCE REGULATOR” (VERTEX PHARMACEUTICALS INCORPORATED, priority 2020, published 2024).

Read-outs that look alike come from different tables or passages of the source.

The conditions of series [1]: 13-membered ring.
Series [2] deals with CFTR (Homo sapiens, UniProt P13569). Nature of the series: Membrane potential dye, Enteroid Assay A. In kind it is cell-based. Conditions: Table 6. The essentials: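 % Activity: chloride transport relative to a 3 μM/3 μM corrector pair plus 300 nM acute potentiator control. Primary human enteroid cells, 18-24 h compound exposure at 37 °C; membrane potential dye (methyl oxonol) fluorescence over 15 min after forskolin (10 μM)/IBMX (100 μM)/Compound III (300 nM) stimulation in chloride-free buffer.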

For series [3] the following is noted: from CN[C@H](CC(C)C)[C@H](CC(C)C)Oc1cc(-c2c(C)cccc2C)nc(NS(=O)(=O)c2cccc(C(=O)O)c2)n1; amide bond; 13-membered ring; HATU/TEA; DMF; 18.8 mM; 15.0 h.
For the next series, the target named is T1, F508del (Homo sapiens, UniProt P13569, DEL508-508).
T1 construct: expressed in transfected cells
In words: 3T3 assay: membrane potential optical assay for F508del correction. In kind it is cell-based. Conditions: Table 6, F508del NIH 3T3 cells. An outline of the steps:
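NIH 3T3 mouse fibroblasts stably expressing F508del incubated with corrector compounds across a concentration range for 16-24 hours at 37° C, then loaded with voltage-sensing redistribution dye. Response is FLIPR membrane potential change on forskolin activation with a chloride gradient (chloride-free gluconate bath, HEPES pH 7.4).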

Series [4] deals with T2, CFTR (Homo sapiens, UniProt P13569, DEL508-508).
T2 construct: endogenous in cells; host or cells: primary human bronchial epithelial cells from CF subjects (F508del/MF-HBE), differentiated at air-liquid interface
Nature of the series: HBE assay: Ussing chamber assay of CFTR-mediated short-circuit currents. It counts as cell-based. To be noted: for EC50: read-out: HBE EC50. An outline of the steps: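 CFTR-mediated Isc (μA/cm²) equals the peak response to apical 20 μM forskolin minus the residual after a 20 μM each BPO/GlyH-101/CFTR inhibitor 172 cocktail, recorded in Ussing chambers at Vhold 0 mV, 37 °C, pH 7.4, with 30 μM apical amiloride. Cells were F508del/MF HBE cultures preincubated 18-24 h with corrector (concentration range or 10 μM) plus 1 μM ivacaftor in 20% human serum.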

In series [5] the target is T2, CFTR. Nature of the series: HBE2 assay: Ussing chamber assay of CFTR-mediated short-circuit currents. To be noted: F508del/MF-HBE cells, with 44 nM potentiator, 18-24 hours, 20% human serum. In kind it is cell-based. The essentials:
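Corrector activity read as CFTR-dependent ISC (μA/cm^2): peak forskolin current minus post-inhibitor steady state. Measured at 37 °C, voltage clamp at 0 mV, on F508del/MF-HBE epithelia grown >14 days air-liquid interface in Ussing chambers.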

T2 sequence (P13569 with tags, fused parts or gaps DEL508-508): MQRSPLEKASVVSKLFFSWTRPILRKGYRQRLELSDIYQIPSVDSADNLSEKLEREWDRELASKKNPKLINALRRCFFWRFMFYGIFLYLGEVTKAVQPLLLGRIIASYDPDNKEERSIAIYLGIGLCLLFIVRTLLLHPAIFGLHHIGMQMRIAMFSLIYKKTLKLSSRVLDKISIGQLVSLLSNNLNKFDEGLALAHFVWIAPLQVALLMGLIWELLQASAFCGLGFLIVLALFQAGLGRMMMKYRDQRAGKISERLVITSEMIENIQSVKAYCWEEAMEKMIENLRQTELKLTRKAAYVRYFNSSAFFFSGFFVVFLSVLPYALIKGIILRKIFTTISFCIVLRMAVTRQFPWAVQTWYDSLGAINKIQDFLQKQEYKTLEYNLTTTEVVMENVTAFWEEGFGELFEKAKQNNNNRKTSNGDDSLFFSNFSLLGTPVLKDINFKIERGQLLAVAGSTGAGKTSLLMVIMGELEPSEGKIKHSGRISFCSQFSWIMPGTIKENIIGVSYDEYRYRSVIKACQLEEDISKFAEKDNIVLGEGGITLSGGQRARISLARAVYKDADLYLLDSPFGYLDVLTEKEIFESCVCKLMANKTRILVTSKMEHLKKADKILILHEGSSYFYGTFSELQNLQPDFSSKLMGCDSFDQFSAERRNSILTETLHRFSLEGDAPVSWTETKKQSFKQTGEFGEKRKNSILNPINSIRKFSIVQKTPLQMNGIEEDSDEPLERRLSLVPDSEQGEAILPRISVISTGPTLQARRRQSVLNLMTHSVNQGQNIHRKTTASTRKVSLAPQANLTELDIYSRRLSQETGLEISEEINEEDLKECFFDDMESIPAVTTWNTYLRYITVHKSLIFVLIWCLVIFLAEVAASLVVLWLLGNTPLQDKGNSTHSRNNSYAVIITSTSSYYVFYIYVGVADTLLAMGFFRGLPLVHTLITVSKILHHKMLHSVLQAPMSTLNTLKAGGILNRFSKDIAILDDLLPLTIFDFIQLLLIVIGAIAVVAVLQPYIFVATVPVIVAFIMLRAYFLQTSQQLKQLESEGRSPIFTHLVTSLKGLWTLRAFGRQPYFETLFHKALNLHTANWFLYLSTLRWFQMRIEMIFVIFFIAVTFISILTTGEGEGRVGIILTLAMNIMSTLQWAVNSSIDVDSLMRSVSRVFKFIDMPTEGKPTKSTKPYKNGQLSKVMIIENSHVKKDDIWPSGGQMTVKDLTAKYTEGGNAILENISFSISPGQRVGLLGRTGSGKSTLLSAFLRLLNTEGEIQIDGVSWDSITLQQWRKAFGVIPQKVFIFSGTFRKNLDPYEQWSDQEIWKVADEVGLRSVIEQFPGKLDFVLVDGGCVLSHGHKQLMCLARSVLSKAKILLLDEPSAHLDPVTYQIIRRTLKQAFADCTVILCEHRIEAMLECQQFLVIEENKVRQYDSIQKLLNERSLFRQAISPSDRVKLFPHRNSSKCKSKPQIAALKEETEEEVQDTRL
T1 sequence (P13569 with tags, fused parts or gaps DEL508-508): as above
Chain of CFTR (Homo sapiens, UniProt P13569) (P13569 with tags, fused parts or gaps DEL508-508): as above

Turning to `Cc1cccc(C)c1-c1cc2nc(n1)NS(=O)(=O)c1cccc(c1)C(=O)N(Cc1cncc(Cl)n1)[C@H](CC(C)(C)C)CO2`, the ring closure, isolated yield in series [1] (from Cc1cccc(C)c1-c1cc(OC[C@@H](CC(C)(C)C)NCc2cncc(Cl)n2)nc(NS(=O)(=O)c2cccc(C(=O)O)c2)n1, amide bond, CDMT/NMM, DMF, 12.4 mM, 25.0 °C, 16.5 h) worked out at 56%.

In the case of `COCN1c2nc(cc(-c3c(C)cccc3C)n2)OC[C@@H](CC(C)(C)C)NC(=O)c2cccc(c2)S1(=O)=O`, the ring closure, isolated yield in series [1] (from COCN(c1nc(OC[C@H](N)CC(C)(C)C)cc(-c2c(C)cccc2C)n1)S(=O)(=O)c1cccc(C(=O)O)c1, amide bond, HATU/DIEA, DMF, 107.6 mM, 0.33 h) stood at 39%.

Turning to `Cc1cccc(C)c1-c1cc2nc(n1)NS(=O)(=O)c1cccc(c1)C(=O)N(CC1CC3(CCN(C(=O)OC(C)(C)C)CC3)C1)[C@H](CC(C)C)CO2`, the ring closure, isolated yield in series [1] (from Cc1cccc(C)c1-c1cc(OC[C@@H](CC(C)C)NCC2CC3(CCN(C(=O)OC(C)(C)C)CC3)C2)nc(NS(=O)(=O)c2cccc(C(=O)O)c2)n1, amide bond, HATU/DIEA, DMF, 9.3 mM, 25.0 °C, 2.0 h, 2 steps) was found to be 33%.

`Cc1cccc(C)c1-c1cc2nc(n1)NS(=O)(=O)c1cccc(c1)C(=O)N(CCCO[Si](C)(C)C(C)(C)C)[C@H](CC(C)C)CO2` returned a ring closure, isolated yield in series [1] (from Cc1cccc(C)c1-c1cc(OC[C@@H](CC(C)C)NCCCO[Si](C)(C)C(C)(C)C)nc(NS(=O)(=O)c2cccc(C(=O)O)c2)n1, amide bond, COMU/DIEA, DMF, 19.9 mM, 22.0 h) of 43%.

Take `Cc1cccc(C)c1-c1cc2nc(n1)NS(=O)(=O)c1cccc(c1)C(=O)N(Cc1cncc(Cl)n1)[C@H](CC1CCCCC1)CO2`: the ring closure, isolated yield in series [1] (from Cc1cccc(C)c1-c1cc(OC[C@@H](CC2CCCCC2)NCc2cncc(Cl)n2)nc(NS(=O)(=O)c2cccc(C(=O)O)c2)n1, amide bond, CDMT/NMM, DMF, 20.4 mM, 16.2 h) turned out to be 73%.

The compound `Cc1cccc(C)c1-c1cc2nc(n1)NS(=O)(=O)c1cccc(c1)C(=O)N(Cc1cncc(N3CCCC[C@H]3C)n1)C(CCC(C)(C)F)CO2` (some centres unmarked) yielded a ring closure, isolated yield in series [1] (from Cc1cccc(C)c1-c1cc(OCC(CCC(C)(C)F)NCc2cncc(N3CCCC[C@H]3C)n2)nc(NS(=O)(=O)c2cccc(C(=O)O)c2)n1, amide bond, CDMT/NMM, DMF, 19.8 mM, 16.0 h) of 54%.

In series [1] (from Cc1cccc(C)c1-c1cc(OC[C@@H](CC(C)C)NCCC2CCN(C(=O)OC(C)(C)C)CC2)nc(NS(=O)(=O)c2cccc(C(=O)O)c2)n1, amide bond, HATU/TEA, DMF, 125.0 mM, 25.0 °C, 1.0 h, 2 steps), `Cc1cccc(C)c1-c1cc2nc(n1)NS(=O)(=O)c1cccc(c1)C(=O)N(CCC1CCN(C(=O)OC(C)(C)C)CC1)[C@H](CC(C)C)CO2` gave a ring closure, isolated yield of 94%.

Turning to `Cc1cccc(C)c1-c1cc2nc(n1)NS(=O)(=O)c1cccc(c1)C(=O)N(Cc1cccc(NC(=O)OC(C)(C)C)n1)[C@H](CC(C)(C)C)CO2`, in series [1] (from Cc1cccc(C)c1-c1cc(OC[C@@H](CC(C)(C)C)NCc2cccc(NC(=O)OC(C)(C)C)n2)nc(NS(=O)(=O)c2cccc(C(=O)O)c2)n1, amide bond, HATU/DIEA, DMF, 16.0 h, 2 steps), the ring closure, isolated yield was 31%.

With `Cc1cccc(C)c1-c1cc2nc(n1)NS(=O)(=O)c1cccc(c1)C(=O)N(Cc1cncc(N(C)C3CCC3)n1)C1(CCC(C)(C)C1)CO2` (centres unmarked), the ring closure, isolated yield in series [1] (from Cc1cccc(C)c1-c1cc(OCC2(NCc3cncc(N(C)C4CCC4)n3)CCC(C)(C)C2)nc(NS(=O)(=O)c2cccc(C(=O)O)c2)n1, amide bond, CDMT/NMM, DMF, 18.1 mM, 120.0 h) was found to be 36%.

`Cc1cccc(C)c1-c1cc2nc(n1)NS(=O)(=O)c1cccc(c1)C(=O)N(Cc1cncc(Cl)n1)[C@H](COC1CC1)CO2`: the ring closure, isolated yield in series [1] (from Cc1cccc(C)c1-c1cc(OC[C@@H](COC2CC2)NCc2cncc(Cl)n2)nc(NS(=O)(=O)c2cccc(C(=O)O)c2)n1, amide bond, CDMT/NMM, DMF, 12.9 mM, 21.0 h) stood at 97%.

The compound `Cc1cccc(C)c1-c1cc2nc(n1)NS(=O)(=O)c1cccc(c1)CN(C(=O)OC(C)(C)C)[C@H](CC(C)C)CO2` had a ring closure, isolated yield in series [1] (from Cc1cccc(C)c1-c1cc(OC[C@@H](CC(C)C)NC(=O)OC(C)(C)C)nc(NS(=O)(=O)c2cccc(COS(C)(=O)=O)c2)n1, amine bond, NaH, DMF, 3.92 mM, 25.0 °C) of 50%.

`Cc1cccc(C)c1-c1cc2nc(n1)NS(=O)(=O)c1cccc(c1)C(=O)N(CCC1(C(F)(F)F)CC1)[C@@H]1CN(C(=O)OC(C)(C)C)C[C@H]1O2` yielded a ring closure, isolated yield in series [1] (from Cc1cccc(C)c1-c1cc(O[C@@H]2CN(C(=O)OC(C)(C)C)C[C@H]2NCCC2(C(F)(F)F)CC2)nc(NS(=O)(=O)c2cccc(C(=O)O)c2)n1, amide bond, COMU/DIEA, DMF, 10.6 mM, 72.0 h) of 92%.

Take `Cc1cccc(C)c1-c1cc2nc(n1)NS(=O)(=O)c1cccc(c1)C(=O)N(C)[C@H](CC(C)C)[C@H](CC(C)C)O2` [Compound 2, (10S,11R)-6-(2,6-Dimethylphenyl)-12-methyl-10,11-bis(2-methylpropyl)-9-oxa-2λ^6-thia-3,5,12,19-tetraazatricyclo[12.3.1.14,8]nonadeca-1(18),4(19),5,7,14,16-hexaene-2,2,13-trione]: the “Ent. A Max Activity” value on CFTR [2] (chloride transport as % of triple combination control (Enteroid Assay A)) is “+++ (+++ is >60%)”. The EC50 at CFTR [2] (human enteroid cells, 18-24 hours, acute 10 μM forskolin and 300 nM ivacaftor, read-out: Ent. A EC50) was below 1 µM; at F508del (18-24 hours at 37° C., forskolin, acutely added 300 nM Ivacaftor), below 1 µM. In series [3], the ring closure, yield after HPLC was 47%. Further, at F508del (NIH3T3, compared to lumacaftor in combination with acutely added 300 nM Ivacaftor, read-out: 3T3 Max Activity), the Emax is above 60%.

With `Cc1cccc(C)c1-c1cc2nc(n1)NS(=O)(=O)c1cccc(c1)C(=O)N(Cc1ccc3c(I)cn(C)c3n1)[C@H](CC(C)(C)C)CO2`, the ring closure, isolated yield in series [1] (from Cc1cccc(C)c1-c1cc(OC[C@@H](CC(C)(C)C)NCc2ccc3c(I)cn(C)c3n2)nc(NS(=O)(=O)c2cccc(C(=O)O)c2)n1, amide bond, 2-chloro-1-methylpyridinium iodide/DIEA, DMF, 35.1 mM, 16.0 h) worked out at 61%.

Turning to `Cc1cccc(C)c1-c1cc2nc(n1)NS(=O)(=O)c1cccc(c1)C(=O)N(Cc1ncc(N3CC(C)(C)C3)cn1)[C@H](CC(C)(C)C)CO2` [Compound 331], the EC50 at CFTR [4] (Table 11) is below 1 µM. Moreover, on CFTR [4] (Table 11, read-out: HBE Max Activity (%)), the Emax was above 60%. The compound also gave a ring closure, isolated yield in series [1] (from Cc1cccc(C)c1-c1cc(OC[C@@H](CC(C)(C)C)NCc2ncc(N3CC(C)(C)C3)cn2)nc(NS(=O)(=O)c2cccc(C(=O)O)c2)n1, amide bond, T3P/DIEA, MeCN, 34.5 mM, 0.0 °C, 2.5 h) of 53%.

The compound `CCC(C)(C)CC1COc2cc(-c3c(C)cccc3C)nc(n2)NS(=O)(=O)c2cccc(c2)C(=O)N1Cc1cncc(N(C)C2CCC2)n1` (centres unmarked) yielded a ring closure, isolated yield in series [1] (from CCC(C)(C)CC(COc1cc(-c2c(C)cccc2C)nc(NS(=O)(=O)c2cccc(C(=O)O)c2)n1)NCc1cncc(N(C)C2CCC2)n1, amide bond, CDMT/NMM, DMF, 19.5 mM, 16.2 h) of 65%.

Turning to `Cc1cccc(C)c1-c1cc2nc(n1)NS(=O)(=O)c1cccc(c1)C(=O)N(Cc1ncc(OC(C)C)cn1)[C@H](CC1CCC1)CO2` [Compound 1297, (11R)-11-(Cyclobutylmethyl)-6-(2,6-dimethylphenyl)-12-[(5-isopropoxypyrimidin-2-yl)methyl]-2,2-dioxo-9-oxa-2λ^6-thia-3,5,12,19-tetrazatricyclo[12.3.1.14,8]nonadeca-1(18),4(19),5,7,14,16-hexaen-13-one], the EC50 on CFTR [4] (HBE assay) and on CFTR [5] was below 1 µM in each case. In addition, the Emax on CFTR [4] (HBE assay, read-out: HBE Max activity (%)) is above 60%; on CFTR [5] (read-out: HBE2 Max activity (%)), above 60%. At CFTR [5] (3 μM), the “HBE2 Activity at 3 μM (%)” value is given as “+++ (+++ is >60+)”. The ring closure, isolated yield in series [1] (from Cc1cccc(C)c1-c1cc(OC[C@@H](CC2CCC2)NCc2ncc(OC(C)C)cn2)nc(NS(=O)(=O)c2cccc(C(=O)O)c2)n1, amide bond, CDMT/NMM, DMF, 30.4 mM, 15.0 h) came out at 58%.

In the case of `Cc1cccc(C)c1-c1cc2nc(n1)NS(=O)(=O)c1cccc(c1)C(=O)N(Cc1ccc3cc(I)n(C)c3n1)[C@H](CC(C)(C)C)CO2`, the ring closure, isolated yield in series [1] (from Cc1cccc(C)c1-c1cc(OC[C@@H](CC(C)(C)C)NCc2ccc3cc(I)n(C)c3n2)nc(NS(=O)(=O)c2cccc(C(=O)O)c2)n1, amide bond, 2-chloro-1-methylpyridinium iodide/DIEA, DMF, 41.5 mM, 16.0 h) was found to be 72%.
